Data reported in patent publication US20140213536A1, “MARKETING N-METHY[…] RELATED SUBSTANCES FOR USE IN TREATING/ LESSENING THE OCCURRENCE OF HOT FLASHES RELATED TO MENOPAUSE” (DSM IP ASSETS B.V., priority 2013, published 2014).
“And” between values parts separate entries of the source, which are not always exact repeats. Equal values may be shown once.

How the values were obtained:
[1] = system: ovariectomized female rats; assay: CGRP-induced hot flash / skin temperature in ovariectomized rats; type: in vivo, rat; settings: for CGRP response of skin temperature above baseline (representative data, FIG. 3) / basal skin temperature (representative data, FIG. 3): NMS 0.48 or 18.5 ug/kg/d through diet, estradiol subcutaneous; for CGRP response of skin temperature above baseline (representative data, FIG. 3) / basal skin temperature (representative data, FIG. 3) / CGRP-induced hot flash response (repeated measures ANOVA, FIG. 9A): vs untreated controls; for CGRP-induced hot flash response (repeated measures ANOVA, FIG. 9A): seed supplying NMS-glucoside or NMS oxalate 18.5 or 55.5 μg/kg/d in diet, estradiol implant
Source text: (§1) The animals arrived at approximately 60 days of age, and were placed on specific diets throughout the study (to approximately 160 days of age). The diets were formulated and provided by Dyets Inc. (Bethlehem, Pa.) and are based on a modified AIN-93G diet. These diets were fed ad libitum. Two weeks after arrival, at approximately 80 days of age, the animals were ovariectomized, allowed to recover for three weeks, and then placed on defined diets. In the first study, these diets contained 0, 0.08, 0.48, 3.2, 18.5, 185, or 3700 μg/kg/day of NMS dihydrochloride (FIG. 2). In the second, follow-up study, the diets contained no NMS (control), NMS oxalate (18.5 or 55.5 μg/kg/d), or milled Zanthoxylum seed in quantities that supplied NMS-glucoside at equivalent doses (18.5 or 55.5 μg/kg/d; FIG. 8). The NMS and NMS-glucoside content was verified using liquid chromatography with mass spectrometric detection. Extraction methods were similar to those of Yanase et al., 2010.
(§2) All diets were fed for 2 weeks prior to the first behavioral assessment (open field). Positive control animals received a 5.0 mm subcutaneous silastic capsule implant packed with a crystalline 17β-estradiol and cholesterol mixture (25%, 0.058 inch inner diameter, 0.077 inch outer diameter; Dow Corning #508-006). Animals were then examined for locomotor activity (open field) and in two behavioral assays to assess mood (elevated plus maze and swim test) separated by two weeks in-between each assay. Two weeks after the final behavioral task (swim test), the animals were anesthetized and their physiological response to an experimentally-induced hot flash was tested. After the temperature monitoring was complete, tissue was harvested while the animals were still anesthetized.
Ovariectomy. Two weeks after arrival, each animal was anesthetized via isoflurane inhalation and the dorsal mid-lumbar area was shaved and swabbed with surgical scrub, iodine and alcohol. The animal was then placed on a warm heat pad covered by a sterile cloth/pad in ventral recumbency with tail towards surgeon. A 2-3 cm dorsal midline skin incision was made halfway between the caudal edge of the ribcage and the base of the tail. A single transverse incision of 5.5-10 mm long was made into the muscle wall on both the right and left sides approximately ⅓ of the distance between the spinal cord and the ventral midline. The ovary and the oviduct were exteriorized through the muscle wall. A hemostat was clamped around the uterine vasculature between the oviduct and uterus and the uterine vasculature was ligated with dissolvable suture. Each ovary and part of the oviduct was removed with single cuts through the oviducts near the ovary. The hemostat was removed, and the remaining tissue replaced into the peritoneal cavity. The ovary on the other side was removed in a similar manner. The muscle incision is not sutured. Sterile wound clips were used to close the skin incision. Animals were monitored daily for signs of infection or morbidity.
Hot Flash Studies. Animals were anesthetized with intraperitoneal co-injection of urethane (750 mg/kg) and α-chloralose (60 mg/kg). […] Thermistor probes (ADI Instruments, Colorado Springs, Colo.) were taped to the plantar surfaces of one hind foot. Forty minutes later, after anesthesia-induced hypothermia had stabilized, the basal skin temperature was recorded. Temperature monitoring then occurred at 5-second intervals throughout the remainder of the experiment. Calcitonin gene related peptide (CGRP; 10 μg/kg, i.v.) dissolved in saline was then injected via the tail vein. A maximum of eight animals were tested at the same time due to limitations on instrumental throughput. Cage mates were always tested together in order to avoid the stresses of single-housing and the potential stress hormone effects on body temperature. Therefore only four groups could be tested within any one given day.

[2] = Circulating (plasma) estradiol in ovariectomized rats; type: in vivo, rat; settings: dietary NMS; for plasma estradiol level (FIG. 5): first study, estradiol implant as positive control
Source text: as §1, §2

[3] = system: ovariectomized female rats; assay: Uterine weight (uterotrophic effect) in ovariectomized rats; type: in vivo, rat; settings: vs ovariectomized controls; for uterine weight (FIG. 6D): first study, after 80 days of supplementation; for uterine weight / uterine growth (FIG. 11A): follow-up study
Source text: as §1, §2

[4] = Body weight of ovariectomized rats on diets; type: in vivo, rat; settings: for body weight throughout experiment (FIG. 6A): vs control diet / all other groups
Source text: as §1, §2

[5] = system: ovariectomized female rats; assay: Forced swim test (depressive-like behaviors); type: in vivo, rat
Experimental: Swim Test. Each rat was examined in the swim test for depressive-like behaviors. The test was performed over two consecutive days since it is a measure of an adaptive response to a perceived inescapable situation. The first test establishes to the animal that it is an inescapable situation, and the second test measures the animal's degree of passive coping derived from an unwillingness to maintain effort in an inescapable situation. Typical antidepressants limit the amount of passive coping (immobility) and promote the amount of active coping (swimming/climbing). On day one (0800 h to 1300 h), animals were acclimated to the test by placing them in a plexiglass cylindrical container (45 cm×20 cm) filled with 30 cm of fresh water (25° C.) for fifteen minutes, after which they were toweled dried and returned to their home cage. On day two (24 hrs later) the test was performed for a total swim time of five minutes, after which the rats were toweled dried and returned to their home cage. Both trials were recorded by a digital video camera was secured to the ceiling above the cylinders and connected to a laptop. Total time spent swimming and immobile was measured real-time by behavioral software (Anymaze, Stoelting Co.), and scored post hoc by a blinded experimenter from captured video. […] Immobility was defined as absence of any movement except for slight movements necessary for the animal to keep its head above water. Climbing was defined as rapid movement of the forelimbs that broke the surface of the water.

[6] = target: serotonin reuptake transporter (SERT) (Homo sapiens, UniProt P31645); settings: FIG. 1C, Powell et al., 2008, cited from earlier work
[7] = target: T1, 5-HT7 receptor (Homo sapiens, UniProt P34969); settings: FIG. 1B, cited from earlier work
[8] = system: ovariectomized female rats; assay: Elevated plus maze task (anxiety-like behaviors); type: in vivo, rat
Experimental: Elevated Plus Maze Task. Animals were tested on the elevated plus maze to measure anxiety-related behavior. The plus-maze is elevated ˜85 cm above the floor and consisted of two open and two closed arms of the same size (50×10 cm). The closed arms were surrounded by walls 40 cm high, and the arms were constructed of black acrylic slabs that radiate from a central platform (10×10 cm) to form a plus sign (Lafayette Instruments, Lafayette, Ind.). Each rat was placed in the central platform facing one of the open arms, and its behavior was recorded during a 5-min testing period with video capture software (AnyMaze). The amount of time spent on open and closed arms and the number of entries into open and closed arms were assessed with video analysis (AnyMaze). In addition, the animals were scored live by the experimenter for time spent rearing, grooming, and number of stretch-attend postures and head dips over the edge of the open arm.

[9] = system: ovariectomized female rats; assay: Open field task (locomotion, anxiety-like behaviors); type: in vivo, rat
Experimental: (§3) Open Field Task. Animals were tested in the open field to measure overall locomotor activity and basal anxiety state. In the open field test each rat is placed in a novel environment consisting of an arena measuring 100×100×40 cm. Rats were placed in the middle of the chamber and behavior in the open field was recorded for thirty minutes with a digital camera and measured by software (AnyMaze, Stoelting Co., Inc.). The following parameters were analyzed: a) total distance traveled; b) time in center; c) center entries; and d) number of fecal boli excreted.

[10] = system: ovariectomized female rats; assay: Behavioral measures of mood overall (open field, elevated plus maze, swim test); type: in vivo, rat
Experimental: Animal Handling. Rats were handled each day for four days prior to behavioral analysis. This involved gently removing the animal from its cage and holding it in the experimenter's lap on a towel without restraint, allowing the animal to explore. This acclimatized the animal to handling by experimenters. All behavioral testing occurred in a room adjacent to the colony room, and the animals were acclimated to the test room overnight prior to testing.
as §3
Elevated Plus Maze Task. […] Each rat was placed in the central platform facing one of the open arms, and its behavior was recorded during a 5-min testing period with video capture software (AnyMaze). The amount of time spent on open and closed arms and the number of entries into open and closed arms were assessed with video analysis (AnyMaze). […]

[11] = target: T1, 5-HT7 receptor; settings: 5-HT7 vs other 5-HT receptors; cited from earlier work

T1 sequence (P34969 whole entry): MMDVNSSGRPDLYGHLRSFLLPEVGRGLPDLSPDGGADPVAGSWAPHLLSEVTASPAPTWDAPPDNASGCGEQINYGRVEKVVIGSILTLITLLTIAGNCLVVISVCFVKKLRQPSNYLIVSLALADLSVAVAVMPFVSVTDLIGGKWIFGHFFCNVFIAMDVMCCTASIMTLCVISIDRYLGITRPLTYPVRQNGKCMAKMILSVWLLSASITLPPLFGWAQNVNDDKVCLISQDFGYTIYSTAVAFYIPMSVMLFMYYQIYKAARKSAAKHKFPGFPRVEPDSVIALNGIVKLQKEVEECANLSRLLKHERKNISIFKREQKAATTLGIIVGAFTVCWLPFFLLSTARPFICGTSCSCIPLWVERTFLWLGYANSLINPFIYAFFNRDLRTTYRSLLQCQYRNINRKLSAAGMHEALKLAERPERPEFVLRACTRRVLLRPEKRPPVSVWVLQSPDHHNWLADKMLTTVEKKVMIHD
serotonin reuptake transporter (SERT), sequence (P31645 whole entry, species assumed): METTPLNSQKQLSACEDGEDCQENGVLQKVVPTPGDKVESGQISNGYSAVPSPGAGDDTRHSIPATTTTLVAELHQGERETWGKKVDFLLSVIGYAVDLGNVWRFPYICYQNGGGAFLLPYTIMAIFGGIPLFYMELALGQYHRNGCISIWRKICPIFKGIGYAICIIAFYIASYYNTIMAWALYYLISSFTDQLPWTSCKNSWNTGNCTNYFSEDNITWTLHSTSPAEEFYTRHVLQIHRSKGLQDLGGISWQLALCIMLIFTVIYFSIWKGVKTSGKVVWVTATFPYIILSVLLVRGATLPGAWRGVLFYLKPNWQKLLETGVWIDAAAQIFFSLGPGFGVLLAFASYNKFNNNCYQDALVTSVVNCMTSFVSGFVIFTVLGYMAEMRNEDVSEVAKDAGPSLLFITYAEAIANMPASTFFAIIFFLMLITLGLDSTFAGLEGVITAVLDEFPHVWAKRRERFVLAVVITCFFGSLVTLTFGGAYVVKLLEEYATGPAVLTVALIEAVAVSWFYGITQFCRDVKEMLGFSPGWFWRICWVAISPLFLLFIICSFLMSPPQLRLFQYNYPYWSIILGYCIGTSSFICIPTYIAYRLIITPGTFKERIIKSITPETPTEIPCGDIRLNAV

C[C@]12CC[C@@H]3c4ccc(O)cc4CC[C@H]3[C@@H]1CC[C@@H]2O [estradiol, 17β-estradiol, reference compound]
CGRP response of skin temperature above baseline (representative data, FIG. 3) ([1]; first study): lowest responses to CGRP | basal skin temperature (representative data, FIG. 3) ([1]; first study): lowest basal temperatures | CGRP-induced hot flash response (repeated measures ANOVA, FIG. 9A) ([1]; follow-up study): blunted the CGRP-induced hot flash response | plasma estradiol level (FIG. 5) [2]: highest levels of plasma estradiol | uterine weight (FIG. 6D) [3]: significantly higher uterine weights | uterine weight / uterine growth (FIG. 11A) [3]: significantly higher uterine weights | body weight throughout experiment (FIG. 6A) ([4]; first study): significantly lower body weight | body weight throughout the experiment (FIG. 11B) ([4]; follow-up study, vs all other groups): significantly lower body weight | time immobile, second session of forced swim test (FIG. 7A) ([5]; first study): spent less time immobile

CNCCc1c[nH]c2ccc(O[C@@H]3O[C@H](CO)[C@@H](O)[C@H](O)[C@H]3O)cc12 [NMS-glucoside, N-methylserotonin 5-O-6-glucoside]
human equivalent dose (HED) ([1]; BSA calculation, follow-up study, NMS-glucoside in milled seed): 150 to 540 µg/day

CNCCc1c[nH]c2ccc(O)cc12 [NMS, N-methylserotonin]
human equivalent dose (HED) for thermoregulatory effects ([1]; body surface area (BSA) method, first study): 150 to 840 µg/day | basal skin temperature (FIG. 4) ([1]; first study, 18.5 ug/kg/d dietary NMS vs untreated controls): decreased basal skin temperature | CGRP response of skin temperature above baseline (representative data, FIG. 3) ([1]; first study): lower CGRP responses | basal skin temperature (representative data, FIG. 3) ([1]; first study): lower basal temperatures | CGRP-induced hot flash response, baseline corrected (repeated measures ANOVA, FIG. 4) ([1]; first study, dietary NMS): blunted the CGRP-induced hot flash response | CGRP-induced hot flash response (repeated measures ANOVA, FIG. 9A) ([1]; follow-up study): blunted the CGRP-induced hot flash response | plasma estradiol level (FIG. 5) [2]: increased plasma estradiol in a dose-dependent manner | non-uterine estradiol secretion ([2]; ovariectomized rats): tripled | fold lower affinity than Prozac at the serotonin reuptake transporter [6]: 100 fold | IC50 ([6]; read-out: IC50 of serotonin reuptake transporter inhibition): ~0.5 µM | concentration of maximal activation of the 5-HT7 receptor [7]: 50 to 100 nM | EC50 ([7]; read-out: EC50 of 5-HT7 receptor activation): ~0.022 µM and 0.022 µM | time spent in the open arms of elevated plus maze (FIG. 7D) ([8]; first study): no differences amongst groups | effect of treatment in the elevated plus maze (FIG. 10B) ([8]; follow-up study): No significant effects of treatment | uterine weight (FIG. 6D) [3]: did not alter uterine weight | uterine weight / uterine growth (FIG. 11A) [3]: did not alter uterine weight | total distance traveled in open field (FIG. 7C) ([9]; first study, 30 minute test): no differences across groups | effect of treatment in the open field (FIG. 10A) ([9]; follow-up study): No significant effects of treatment | weight change as a percentage of original weight (FIG. 6B, C) ([4]; first study, throughout or at the end of the study): not different between dietary treatments | body weight throughout experiment (FIG. 6A) ([4]; first study): did not alter body weight | overall weight change as a percentage of original weight at the end of the study (FIG. 11C) ([4]; follow-up study): not different between dietary treatments | weight change as a percentage of original weight over time (FIG. 11B) ([4]; follow-up study, vs controls): different between controls and pepper supplemented or NMS supplemented groups | behavioral measures of mood (FIG. 7) ([10]; first study, dietary NMS): did not alter behavioral measures of mood | behavioral measures of mood / mood-related behaviors (FIG. 10) ([10]; follow-up study): did not alter behavioral measures of mood | time spent climbing, second session of forced swim test (FIG. 7B) ([5]; first study): no significant differences amongst groups | effect of treatment in the forced swim test (FIG. 10C) ([5]; follow-up study): No significant effects of treatment | binding preference among 5-HT receptors [11]: binds preferentially to 5-HT7 receptors over other 5-HT receptors
